From the supplement of paper PMC10307832

Legend:
Experiment in all cases: relative viability (nuclei count vs DMSO), 5 days (fraction); higher = more cells survive
[1] = compound: CC1=C(C(=O)N2C=CSC2=N1)CCN3CCC(=C(C4=CC=CC=C4)C5=CC=C(C=C5)F)CC3 + CC1(C)CCC(c2ccc(Cl)cc2)=C(CN2CCN(c3ccc(C(=O)NS(=O)(=O)c4ccc(N[C@H](CCN5CCOCC5)CSc5ccccc5)c(S(=O)(=O)C(F)(F)F)c4)cc3)CC2)C1 [Navitoclax] (partner 0.5 µM)
In short: (§1)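 One day after seeding in 1536-well plates, lung cancer cell lines were dosed by pin tool. Dosing was either single-drug or a fixed anchor-drug dose plus five library-drug doses (not always all listed) in √10 steps. After 5 days, nuclei were stained in one fix-and-stain step and counted on 4× images, and relative viability is the nuclei count of treated wells over that of vehicle wells, given as the median of duplicate plates.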

[2] = compound: CC1=C(C(=O)N2C=CSC2=N1)CCN3CCC(=C(C4=CC=CC=C4)C5=CC=C(C=C5)F)CC3 + CC(C)C[C@H](NC(=O)[C@H](Cc1ccccc1)NC(=O)c1cnccn1)B(O)O [Bortezomib] (partner 0.002 µM)
In short: as §1

[3] = compound: CC1=C(C(=O)N2C=CSC2=N1)CCN3CCC(=C(C4=CC=CC=C4)C5=CC=C(C=C5)F)CC3 + Cc1nc(Nc2ncc(C(=O)Nc3c(C)cccc3Cl)s2)cc(N2CCN(CCO)CC2)n1 [Dasatinib] (partner 0.075 µM)
In short: as §1

[4] = compound: CC1=C(C(=O)N2C=CSC2=N1)CCN3CCC(=C(C4=CC=CC=C4)C5=CC=C(C=C5)F)CC3 + CCNC(=O)c1noc(-c2cc(C(C)C)c(O)cc2O)c1-c1ccc(CN2CCOCC2)cc1 [Luminespib] (partner 0.01 µM)
In short: as §1

| Cell Line | relative viability ([1]; first compound 0.08 µM) | relative viability ([1]; first compound 0.253 µM) | relative viability ([1]; first compound 0.8 µM) | relative viability ([1]; first compound 2.53 µM) | relative viability ([1]; first compound 8 µM) | relative viability ([2]; first compound 0.08 µM) | relative viability ([2]; first compound 0.253 µM) | relative viability ([2]; first compound 0.8 µM) | relative viability ([2]; first compound 2.53 µM) | relative viability ([2]; first compound 8 µM) | relative viability ([3]; first compound 0.08 µM) | relative viability ([3]; first compound 0.253 µM) | relative viability ([3]; first compound 0.8 µM) | relative viability ([3]; first compound 2.53 µM) | relative viability ([3]; first compound 8 µM) | relative viability ([4]; first compound 0.08 µM) | relative viability ([4]; first compound 0.253 µM) | relative viability ([4]; first compound 0.8 µM) | relative viability ([4]; first compound 2.53 µM) | relative viability ([4]; first compound 8 µM) |
| --- | --- | --- | --- | --- | --- | --- | --- | --- | --- | --- | --- | --- | --- | --- | --- | --- | --- | --- | --- | --- |
| PC-14 | 0.655 | 0.974 | 1.05 | 1.09 | 0.449 | 0.9 | 0.759 | 1.01 | 1.09 | 0.592 | 0.228 | 0.284 | 0.21 | 0.237 | 0.282 | 0.168 | 0.175 | 0.151 | 0.176 | 0.151 |
| RERF-LC-KJ | 0.933 | 0.769 | 0.806 | 1 | 0.681 | 1.02 | 1.02 | 1.16 | 1.18 | 1 | 0.706 | 0.892 | 0.879 | 0.688 | 0.492 | 1.14 | 1.12 | 1.22 | 1.24 | 0.813 |
| SK-LU-1 | 0.586 | 0.899 | 0.941 | 0.913 | 0.371 | 1.08 | 0.965 | 1.05 | 1.19 | 1.01 | 0.196 | 0.172 | 0.19 | 0.18 | 0.178 | 0.228 | 0.217 | 0.192 | 0.21 | 0.184 |
| SW 1573 | 0.777 | 1.02 | 1.11 | 1.15 | 0.409 | 1.26 | 1.16 | 1.05 | 1.06 | 0.649 |  | 0.586 | 0.537 | 0.512 | 0.225 | 0.155 | 0.189 | 0.215 | 0.245 | 0.227 |
| UMC-11 | 0.288 | 0.253 | 0.294 | 0.309 | 0.276 | 0.793 | 0.609 | 0.731 | 0.861 | 0.595 | 0.526 | 0.422 | 0.525 | 0.824 | 0.357 | 1.18 | 1.05 | 1.07 | 1.11 | 0.786 |
